# In patent publication US20260206810A1, “NATURAL SWEETENER COMPOSITIONS AND USES THEREOF” (Firmenich SA, priority 2022, published 2026):
# “And” between values parts separate entries of the source, which are not always exact repeats. Identical values can stand only once.
# Experiment: Visual assessment of sweetener solubilization (solution aspect) at room temperature
# Type: physicochemical
# Method: Unless otherwise stated, the inventive compositions of the examples were prepared according to the following general procedure. Solvent A, Solvent B (or mix of solvents B) and solvent C (or mix of solvents C) were mixed using a mechanical stirrer at room temperature (22° C.) to obtain a clear one-phase liquid. A solid natural sweetener in pure form or a blend of solid natural sweeteners was then added to the transparent solvent mixture and mechanically stirred. Mechanical stirring was maintained until the complete solubilization of the sweetener(s) at room temperature was observed. Comparative compositions were prepared analogously. The tables in the following examples summarize the components used in the inventive and comparative compositions.
# Comparative and inventive compositions were prepared according to Table 1 below. The solubilization of the sweetener was assessed visually as a function of time. The stability of the concentrated solution (transparency of the solution) was also assessed visually at room temperature (22° C.) as a function of time.
compound,measurement,setting,value
"C=C1C[C@@]23CC[C@H]4[C@@](C)(CCC[C@@]4(C)C(=O)O[C@@H]4O[C@H](CO)[C@@H](O)[C@H](O)[C@H]4O)[C@@H]2CC[C@]1(O[C@@H]1O[C@H](CO)[C@@H](O)[C@H](O[C@@H]2O[C@H](CO)[C@@H](O)[C@H](O)[C@H]2O)[C@H]1O[C@@H]1O[C@H](CO)[C@@H](O)[C@H](O)[C@H]1O)C3 [Reb A (99.5%), Rebaudioside A]",Amount dispersed giving non-complete solubilization and a cloudy solution,"binary mix ethanol/water 80/20, after 1 day at room temperature (22° C.)",3 % wt
same,Amount dispersed giving non-complete solubilization and a cloudy solution,"binary mix glycerol/water 80/20, after 1 day at room temperature (22° C.)",2 % wt and 1 % wt
same,Amount dispersed giving non-complete solubilization and a cloudy solution,"binary mix propylene glycol/glycerol 33/66, after 2 days at room temperature (22° C.)",4.6 % wt
same,Amount of sweetener that was soluble,"binary mix propylene glycol/glycerol 33/66, room temperature (22° C.)",2.6 % wt
same,Amount dispersed giving non-complete solubilization and a cloudy solution,"binary mix propylene glycol/glycerol 50/50, after 2 days at room temperature (22° C.)",4.6 % wt
same,Amount of sweetener that was soluble,"binary mix propylene glycol/glycerol 50/50, room temperature (22° C.)",3.8 % wt
same,Amount dispersed giving non-complete solubilization and a cloudy solution,"binary mix propylene glycol/water 80/20, after 2 days at room temperature (22° C.)",11 % wt
same,Amount of sweetener that was soluble,"binary mix propylene glycol/water 80/20, room temperature (22° C.)",10 % wt
same,Amount of sweetener solubilized,glycerol/water 80/20 with 48% wt of glycerol replaced by ethanol,12%
